The record followed here is patent US8575201B2 (Boehringer Ingelheim International GmbH, priority 2010, dated 2013).

Structures are written as SMILES.

Assay [1] addresses recombinant human FLAP protein (Homo sapiens (Human), UniProt P20292). Description: FLAP binding assay (Scintillation Proximity Assay, displacement of [125I]L-691,831). The settings on record: read-out: FLAP SPA IC50. The protocol: Assessment of Biological Properties 1. Binding Assay: Compounds are assessed for the ability to bind to FLAP in a binding assay that measures compound-specific displacement of an iodinated (^125I) FLAP inhibitor via a Scintillation Proximity Assay format (adapted from S. Charleson et al., Mol. Pharmacol., 1992, 41, 873-879). […] The cells are lysed with a Dounce homogenizer and the material is centrifuged at 10,000×g for 10 minutes. The supernatant is then collected and centrifuged at 100,000×g for 60 minutes. To prepare membrane protein for an assay, an aliquot of the 100,000×g pellet is resuspended in 1 ml of buffer A, Dounce homogenized, and finally subjected to polytron mixing (30 seconds). […] Mol. Pharmacol., 41, 873-879, 1992) and finally 50 μl of the bead/protein mixture. (final concentrations: beads, 200 μg/well; protein, 5 μg/well; […] The plates are shaken for 2 h before reading on a Microbeta plate reader.
A general note: In a scintillation proximity assay essentially only radioactivity close to the scintillant gives light.

The subject of assay [2] is synthesis of LTB4 in human whole blood. Description: Human whole blood LTB4 production inhibition assay. The format is cell-based. The settings on record: calcimycin stimulated, read-out: hWB LTB4 IC50. How it is done:
Compounds are additionally tested in a human whole blood assay to determine their ability to inhibit the synthesis of LTB4 in a cellular system. Compounds are combined with heparinized human whole blood and incubated for 15 minutes at 37° C. Calcimycin (20 μM final, prepared in phosphate-buffered saline, pH 7.4) is then added and the mixture is incubated for another 30 minutes at 37° C. The samples are centrifuged for 5 min at low speed (1500×g) and the plasma layer is removed. Plasma LTB4 concentrations are then measured using an antibody-based homogenous time-resolved fluorescence method (CisBio, Bedford, Mass.).

Chain of recombinant human FLAP protein (P20292 whole entry): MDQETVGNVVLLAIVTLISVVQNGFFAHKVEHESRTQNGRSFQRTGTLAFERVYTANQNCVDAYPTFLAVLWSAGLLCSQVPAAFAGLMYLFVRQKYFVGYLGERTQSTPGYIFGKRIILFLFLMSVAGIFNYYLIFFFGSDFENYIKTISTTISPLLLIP

Consider `Nc1ncc(-c2ccc(C3(c4noc(-c5cnc(N6CCNCC6)cn5)n4)CCC3)cn2)cn1` [Example 60, 5-[5-(1-{5-[5-(piperazin-1-yl)pyrazin-2-yl]-1,2,4-oxadiazol-3-yl}cyclobutyl)pyridin-2-yl]pyrimidin-2-amine], for which the half-inhibitory concentration (IC50) in assay [1] was determined as 7.9 nM; in assay [2], 150 nM.

In the case of `CC(C)(C#N)Cn1cc(-c2nc(C3(c4ccc(-c5cnc(N)nc5)nc4)CCC3)no2)cn1` [Example 148, 3-[4-(3-{1-[6-(2-amino-pyrimidin-5-yl)-pyridin-3-yl]-cyclobutyl}-[1,2,4]oxadiazol-5-yl)-pyrazol-1-yl]-2,2-dimethyl-propionitrile], the 50% inhibitory concentration (IC50) in assay [1] stood at 25 nM; in assay [2], 200 nM.

As for `Nc1ncc(-c2ccc(C3(c4noc(-c5cn[nH]c5)n4)CCC3)nc2)cn1` [Example 132, 5-(6-{1-[5-(1H-pyrazol-4-yl)-1,2,4-oxadiazol-3-yl]cyclobutyl}pyridin-3-yl)pyrimidin-2-amine], the IC50 was 46 nM in assay [1] and 370 nM in assay [2].

Turning to `Nc1ncc(-c2ccc(C3(c4noc(-c5c[nH]nn5)n4)CCC3)cn2)cn1` [Example 14, 5-(5-{1-[5-(1H-1,2,3-triazol-4-yl)-1,2,4-oxadiazol-3-yl]cyclobutyl}pyridin-2-yl)pyrimidin-2-amine], the IC50 in assay [1] was 140 nM; in assay [2], over 5000 nM.

As to `Nc1ncc(-c2ccc(C3(c4noc(-c5cnccc5Cl)n4)CCC3)cn2)cn1` [Example 88, 5-(5-{1-[5-(4-chloropyridin-3-yl)-1,2,4-oxadiazol-3-yl]cyclobutyl}pyridin-2-yl)pyrimidin-2-amine], the half-inhibitory concentration (IC50) in assay [1] was determined as 7.3 nM; in assay [2], 490 nM.

As to `Nc1ncc(-c2ccc(C3(c4noc(-c5ccc(N6CCNCC6)cc5)n4)CCC3)cn2)cn1` [Example 62, 5-[5-(1-{5-[4-(piperazin-1-yl)phenyl]-1,2,4-oxadiazol-3-yl}cyclobutyl)pyridin-2-yl]pyrimidin-2-amine], the IC50 was 2.6 nM in assay [1] and 72 nM in assay [2].

For the molecule `Nc1ncc(-c2ccc(C3(c4noc(-c5cncnc5)n4)CCC3)cn2)cn1` [Example 100, 5-(5-{1-[5-(pyrimidin-5-yl)-1,2,4-oxadiazol-3-yl]cyclobutyl}pyridin-2-yl)pyrimidin-2-amine], the IC50 in assay [1] was found to be 120 nM; in assay [2], 960 nM.

On to `Nc1ncc(-c2ccc(C3(c4noc(-c5cccnc5Cl)n4)CCC3)cn2)cn1` [Example 84, 5-(5-{1-[5-(2-chloropyridin-3-yl)-1,2,4-oxadiazol-3-yl]cyclobutyl}pyridin-2-yl)pyrimidin-2-amine], for which the half-maximal inhibitory concentration (IC50) stood at 4.1 nM in assay [1] and 280 nM in assay [2].

For `Nc1ncc(-c2ccc(C3(c4noc(-c5ccc[nH]c5=O)n4)CCC3)cn2)cn1` [Example 95, 3-(3-{1-[6-(2-aminopyrimidin-5-yl)pyridin-3-yl]cyclobutyl}-1,2,4-oxadiazol-5-yl)pyridin-2(1H)-one], the 50% inhibitory concentration (IC50) is 29 nM in assay [1] and over 5000 nM in assay [2].

As to `Nc1ncc(-c2ccc(C3(c4noc(-c5ccc(N6CC[C@@H](O)C6)nc5)n4)CCC3)cn2)cn1` [Example 43, (3R)-1-[5-(3-{1-[6-(2-aminopyrimidin-5-yl)pyridin-3-yl]cyclobutyl}-1,2,4-oxadiazol-5-yl)pyridin-2-yl]pyrrolidin-3-ol], the results for the IC50 in assay [1] and in assay [2] were 1.2 nM and 170 nM, respectively.

As to `Nc1ncc(-c2ccc(C3(c4noc(-c5cnn(CC(=O)NC6CC6)c5)n4)CCC3)cn2)cn1` [Example 155, 2-[4-(3-{1-[6-(2-Amino-pyrimidin-5-yl)-pyridin-3-yl]-cyclobutyl}-[1,2,4]oxadiazol-5-yl)-pyrazol-1-yl]-N-cyclopropyl-acetamide], the 50% inhibitory concentration (IC50) in assay [1] was found to be 63 nM; in assay [2] it was 550 nM.

`COc1cc(-c2nc(C3(c4ccc(-c5cnc(N)nc5)nc4)CCC3)no2)ccn1` [Example 93, 5-(5-{1-[5-(2-methoxypyridin-4-yl)-1,2,4-oxadiazol-3-yl]cyclobutyl}pyridin-2-yl)pyrimidin-2-amine]: the concentration for half-maximal inhibition (IC50) in assay [1] is 9.6 nM; in assay [2], 400 nM.

As for `COC(=O)[C@@H]1CCCN1c1ccc(-c2nc(C3(c4ccc(-c5cnc(N)nc5)nc4)CCC3)no2)cn1` [Example 36, methyl 1-[5-(3-{1-[6-(2-aminopyrimidin-5-yl)pyridin-3-yl]cyclobutyl}-1,2,4-oxadiazol-5-yl)pyridin-2-yl]-L-prolinate], the values for the IC50 in assay [1] and in assay [2] were 5.9 nM and 1400 nM, respectively.

For the molecule `Cc1cc(-c2nc(C3(c4ccc(-c5cnc(N)nc5)nc4)CCC3)no2)[nH]n1` [Example 80, 5-(5-{1-[5-(3-methyl-1H-pyrazol-5-yl)-1,2,4-oxadiazol-3-yl]cyclobutyl}pyridin-2-yl)pyrimidin-2-amine], the concentration for half-maximal inhibition (IC50) in assay [1] worked out at 5.5 nM; in assay [2] it was 160 nM.

Consider `Nc1ncc(-c2ccc(C3(c4noc(-c5cccnc5N)n4)CCC3)cn2)cn1` [Example 105, 5-(5-{1-[5-(2-aminopyridin-3-yl)-1,2,4-oxadiazol-3-yl]cyclobutyl}pyridin-2-yl)pyrimidin-2-amine], for which the half-maximal inhibitory concentration (IC50) in assay [1] was determined as 17 nM; in assay [2], 570 nM.

For `NC(=O)CNc1ccc(-c2nc(C3(c4ccc(-c5cnc(N)nc5)nc4)CCC3)no2)cn1` [Example 2, N-2-[5-(3-{1-[6-(2-aminopyrimidin-5-yl)pyridin-3-yl]cyclobutyl}-1,2,4-oxadiazol-5-yl)pyridin-2-yl]glycinamide], the figures for the IC50 in assay [1] and in assay [2] were 5 nM and 740 nM, respectively.

In the case of `Nc1ncc(-c2ccc(C3(c4noc(-c5cscn5)n4)CCC3)cn2)cn1` [Example 23, 5-(5-{1-[5-(1,3-thiazol-4-yl)-1,2,4-oxadiazol-3-yl]cyclobutyl}pyridin-2-yl)pyrimidin-2-amine], the values for the 50% inhibitory concentration (IC50) in assay [1] and in assay [2] were 26 nM and 430 nM, respectively.

On to `Nc1ncc(-c2ccc(C3(c4noc(-c5ccc(N6CC[C@H](O)C6)nc5)n4)CCC3)cn2)cn1` [Example 48, (3S)-1-[5-(3-{1-[6-(2-aminopyrimidin-5-yl)pyridin-3-yl]cyclobutyl}-1,2,4-oxadiazol-5-yl)pyridin-2-yl]pyrrolidin-3-ol], for which the IC50 came to 2.2 nM in assay [1] and 140 nM in assay [2].

With `CC(C)(O)Cn1cc(-c2nc(C3(c4ccc(-c5cnc(N)cn5)nc4)CCC3)no2)cn1` [Example 146, 1-[4-(3-{1-[6-(5-amino-pyrazin-2-yl)-pyridin-3-yl]-cyclobutyl}-[1,2,4]oxadiazol-5-yl)-pyrazol-1-yl]-2-methyl-propan-2-ol], the IC50 in assay [1] was 15 nM; in assay [2], 43 nM.

Turning to `CN(C)CCn1cc(-c2nc(C3(c4ccc(-c5cnc(N)nc5)nc4)CCC3)no2)cn1` [Example 142, 5-{5-[1-(5-{1-[2-(dimethylamino)ethyl]-1H-pyrazol-4-yl}-1,2,4-oxadiazol-3-yl)cyclobutyl]pyridin-2-yl}pyrimidin-2-amine], the IC50 in assay [1] was 16 nM; in assay [2], 250 nM.

Regarding `COCCn1cc(-c2nc(C3(c4ccc(-c5cnc(N)cn5)nc4)CCC3)no2)cn1` [Example 171, 5-[5-(1-{5-[1-(2-Methoxy-ethyl)-1H-pyrazol-4-yl]-[1,2,4]oxadiazol-3-yl}-cyclobutyl)-pyridin-2-yl]-pyrazin-2-ylamine], the concentration for half-maximal inhibition (IC50) in assay [1] came out at 50 nM; in assay [2], 76 nM.

With `CC(C)(Cn1cc(-c2nc(C3(c4ccc(-c5cnc(N)nc5)nc4)CCC3)no2)cn1)C(N)=O` [Example 147, 3-[4-(3-{1-[6-(2-amino-pyrimidin-5-yl)-pyridin-3-yl]-cyclobutyl}-[1,2,4]oxadiazol-5-yl)-pyrazol-1-yl]-2,2-dimethyl-propionamide], the results for the half-inhibitory concentration (IC50) in assay [1] and in assay [2] were 65 nM and 340 nM, respectively.

With `CC(C)(CO)Nc1ccc(-c2nc(C3(c4ccc(-c5cnc(N)nc5)nc4)CCC3)no2)cn1` [Example 21, 2-{[5-(3-{1-[6-(2-aminopyrimidin-5-yl)pyridin-3-yl]cyclobutyl}-1,2,4-oxadiazol-5-yl)pyridin-2-yl]amino}-2-methylpropan-1-ol], the figures for the 50% inhibitory concentration (IC50) in assay [1] and in assay [2] were 2.6 nM and 250 nM, respectively.

Regarding `Nc1ncc(-c2ccc(C3(c4noc(-c5cccnc5)n4)CCOCC3)nc2)cn1` [Example 137, 5-(6-{4-[5-(pyridin-3-yl)-1,2,4-oxadiazol-3-yl]tetrahydro-2H-pyran-4-yl}pyridin-3-yl)pyrimidin-2-amine], the IC50 in assay [1] was found to be 580 nM; in assay [2], 3000 nM.

Turning to `Nc1ncc(-c2ccc(C3(c4noc(-c5c[nH]cn5)n4)CCC3)cn2)cn1` [Example 75, 5-(5-{1-[5-(1H-imidazol-4-yl)-1,2,4-oxadiazol-3-yl]cyclobutyl}pyridin-2-yl)pyrimidin-2-amine], the concentration for half-maximal inhibition (IC50) in assay [1] is 19 nM; in assay [2], 580 nM.

As to `CNc1cnc(-c2ccc(C3(c4noc(-c5cnn(C)c5)n4)CCC3)cn2)cn1` [Example 168, Methyl-[5-(5-{1-[5-(1-methyl-1H-pyrazol-4-yl)-[1,2,4]oxadiazol-3-yl]-cyclobutyl}-pyridin-2-yl)-pyrazin-2-yl]-amine], the figures for the concentration for half-maximal inhibition (IC50) in assay [1] and in assay [2] were 33 nM and 99 nM, respectively.

By IC50 is commonly meant the concentration that gives 50% inhibition.
